Compound	melting point [°C]
Cc1c(Cl)c(Cl)c(SC(F)(F)F)c(Cl)c1Cl	49.5 to 50.5
CC(N)CNC(=O)Nc1ccccc1 (stereo not given)	118 to 120
N#Cc1cnc2sc(Br)cc2c1O	> 255
CS(=O)(=O)c1ccc2cc(C(=O)O)ccc2c1	301 to 304
CCOC(=S)c1c(COC)nc2cc(F)c(F)cc2c1O	126 to 129
O=C1NC(=O)C(=Cc2cc(O)c(O)c([N+](=O)[O-])c2)C(=O)N1	269 to 272
Cc1nc(Cl)c2c(c1O)COC2C (stereo not given)	248
COC(=O)CCn1c(=O)n2cc(C)cc2c2ccccc21	89 to 91
C=CCN1C2CCC3C1CCC2N3C(c1ccc(C(=O)N(CC)CC)cc1)c1cccc(O)c1 (stereo not given)	147 to 150
CCOC(=O)C1=C(C)NC(C)=C(C(=O)OCCN2CCN(C(c3ccccc3)c3ccccc3)CC2)C1c1cccc([N+](=O)[O-])c1 (stereo not given)	80 to 82
Nc1cccnc1-c1ccccc1	59 to 62
O=C(Nc1ccc(F)nc1)N1CCN(c2ccnc(-c3cccc(F)c3F)n2)CC1	192 to 193
Cc1cc(C(=O)O)cc(Cl)c1C1=NC(C)(C(C)C)C(=O)N1 (stereo not given)	245 to 248
Cc1ccccc1-c1cc(-c2ccccc2C(=O)O)on1	162 to 164
Nc1nc(CCCCN2CCN(c3ncccn3)CC2)cs1	101 to 104
CC(SCc1nccc2ccccc12)C(=O)O (stereo not given)	153 to 156
O=Cc1cc(Br)c(OCCBr)c(Br)c1	84 to 85
C=C(C)COc1cc(C)c(NC=O)c(C)c1C	144 to 145
O=S1(=O)OCCN1Cc1ccccc1Cl	61 to 62.5
COC(COC(=O)C1=C(C)NC2=C(C(=O)CNC2)C1c1cccc(Cl)c1Cl)c1ccccc1 (stereo not given)	150 to 153
Nc1nc(CC(=O)Nc2cccc(C(F)(F)F)c2)cs1	116 to 118
Nc1nc2ccccc2c2c1nc1n2C(COCc2ccccc2)COC1 (stereo not given)	185 to 186
COc1cc(Cl)cc(CO)c1Cl	58 to 64

Compound	melting point [°C]
Clc1nccc2[nH]cnc12	100 to 102
Cc1ccc(OCC(=O)c2cc(C(C)(C)C)c(O)c(C(C)(C)C)c2)c(-n2nc3ccccc3n2)c1	155 to 157
CCCCOc1ccc(S(=O)(=O)NC(=O)c2ccc(C(=O)OC)nc2)cc1	174 to 176
Cc1nnc(-c2ccc3occ(-c4ccc(OC(F)(F)F)cc4)c3c2)o1	129 to 130
CCOC(=O)CCC(=O)c1ccc(Cl)c(S(N)(=O)=O)c1	94 to 95
O=C(Nc1cccc(-c2ccnc3c(C(=O)c4cccs4)cnn23)c1)c1cnccn1	222 to 224
CSc1nc(-c2ccccc2)n(-c2ccc(F)cc2)c(=O)c1C#N	204 to 205
COc1ccccc1-n1c(=O)[nH]c2c(C(N)=O)nc(-c3ccc(C#N)cc3)nc21	335 to 338
CCOC(=O)C1CN(S(C)(=O)=O)CCN1CC=CC(=O)Nc1cc2c(Nc3ccc(F)c(Cl)c3)ncnc2cc1OCC1CC1 (stereo not given)	170 to 173
CCOc1ccc(S(=O)(=O)N[C@H](CCCN2C(=O)c3ccccc3C2=O)C(=O)O)cc1	151 to 152
O=C1CC(c2cccc3c2OCO3)=Nc2ccc(N3CCCC3)cc21	330 to 332
COc1ccc2c(cc3n2CCCO3)n1	92 to 93
COc1ccc2c(c1)C(=O)C(O)=C([N+](=O)[O-])C2=O	152 to 155
O=C(Nc1cc(C(F)(F)F)on1)c1ccccc1	152 to 154
Fc1cccc(Cl)c1-c1c(Cl)cc(-c2ccccn2)nc1Cl	45
NC(=O)Cc1ccc2c(c1)Cc1c-2[nH]c(=O)c2nccn12	> 260
N#Cc1ccc(N2C(=O)C3CSCN3C2=O)c2ccccc12 (stereo not given)	223 to 225
O=C(O)c1cc2cc(Cl)ccc2nc1N[C@@H](Cc1ccc(Oc2ccc(Br)cn2)cc1)C(=O)O	145 to 150
O=C(c1ccc(OCCN2CCCCC2)cc1)c1c(-c2ccc(O)cc2)ccc2ccccc12	167 to 170
CCCN1C(=O)C2(c3ccc([N+](=O)[O-])cc3)CC(c3ccc([N+](=O)[O-])cc3)(C2)C1=O	237 to 238
Cc1ccc(S(=O)(=O)OCC2CCC=CO2)cc1 (stereo not given)	45 to 46
COc1ccc(-n2nc(Cl)cc2-c2ccc(OCCO)cc2)cn1	136 to 138

The next lines start with the values.

melting point [°C]	Compound
74 to 75	CC(Oc1ccccc1)C(=O)NCCO[N+](=O)[O-] (stereo not given)
182 to 183	COc1ccc(-c2cc(C(N)=O)c(=O)n(CC3CC3)n2)cc1
142 to 143	O=C(O)/C=C/C=C(c1cccc(F)c1)c1cccc(F)c1
107 to 109	CC(Cc1ccc(C(=O)c2ccc(Cl)cc2)cc1)S(=O)(=O)C(F)(F)F (stereo not given)
129 to 130	Cc1ccc(-c2nc3ccc(CN4CCN(C)CC4)cc3[nH]2)cc1C#Cc1ccc(NC(C)C)nn1
> 250	Nc1ccc(NC(=O)C=C2CC(C(=O)O)Nc3cc(Cl)cc(Cl)c32)cc1 (racemic)
199 to 200	Cc1nn(CCO)c(C)c1S(=O)(=O)c1cc(Cl)cc(Cl)c1
78 to 80	Cc1ccc2cccc(OCc3c(Cl)ccc(S(=O)(=O)N4CCC[C@H]4C(=O)NCCCNC(=O)c4ccc(C#N)cc4)c3Cl)c2n1
84	BrCc1nc(-c2ccccc2)cc2ccccc12
81 to 82	C=CCNc1cc(Oc2ccccc2)c(Cl)cc1[N+](=O)[O-]
127	CCOC(=O)c1c(-c2cccc(Cl)c2)c2cc(C(O)c3nc(-c4ccccc4)cs3)ccc2[nH]c1=O (stereo not given)
160 to 161	CCOC(=O)C1=CCCCC1S(=O)(=O)Nn1cccc1-c1ccccc1 (stereo not given)
98 to 102	CC(C)(C)CC(C)(C)Nc1nc(NC(C)(C)C(C)(C)C)nc(N2CC3CCC(CC3)C2)n1
179	COc1cccc(C(=O)Nc2ccc(N3CCN(Cc4cccc(C#N)c4)CC3)cc2)c1-c1ccc(C(C)C)cc1
292 to 293	CC(C)(CNC(=O)c1ncc[nH]1)c1ccc(C(=O)Nc2cn3cc(C(F)(F)F)ccc3n2)cc1
92 to 95	C[C@@H](n1nccn1)[C@](O)(Cn1cncn1)c1ccc(F)cc1F
233	CC1(C)CCC(C)(C)c2cc(-c3cc(-c4ccc(C(=O)O)cc4)ccc3OCCNC3CC3)ccc21
63 to 66	O=C(NCCCn1cncn1)c1ccco1
152 to 153	CC(=O)Nc1ccc(CBr)c(C)c1C#N
129 to 130	CC(O)=C(C(=O)OCC(Cl)(Cl)Cl)N1C(=O)C(NC(=O)COc2ccccc2)C1SSc1nc2ccccc2s1 (stereo not given)
78 to 80	CCCCCCCN(CCCCCSc1nc(-c2ccccc2)c(-c2ccccc2)[nH]1)C(=O)NCCC
118 to 120	Cc1ccc(S(=O)(=O)NCCc2cccc(OCC(=O)NCc3ccccc3)c2)cc1
155 to 157	COC(=O)c1cccc(S(N)(=O)=O)c1I
115 to 117	O=C(O)C1(c2cn3nc(NCCCN4CCC(OC(c5ccccc5)c5ccccc5)CC4)ccc3n2)CC1
256 to 257	COc1cc2ncnc(Nc3cccc(O)c3)c2cc1OC
104 to 106	COc1ccccc1NC(=O)c1ccc(CO)cc1
231 to 233	O=C(c1ccc([N+](=O)[O-])cc1)N1CCCCc2ncccc21
153 to 155	CCOC1C=CC(Cl)=CC1(C)S(N)(=O)=O (stereo not given)

melting point [°C]	Compound
105 to 106	C[Si](C)(C)CCCSCCCNC(=O)n1cc(F)c(=O)[nH]c1=O
68 to 69	Cc1ccc(S(=O)(=O)OC[C@@H](O)CCc2ccccc2)cc1
160	O=C(c1cccnc1)c1cccc(NC(=O)c2ccn3c2CSC3c2cccnc2)c1 (stereo not given)
105 to 106	O=Cc1c(C#Cc2ccccc2)sc2ccccc12
300	O=C(O)c1cc(C(=O)O)c(C(O)=NCO)cc1C(O)=NCO
77 to 78	CN1C(=O)O[C@@H](c2ccc(F)cc2)[C@H]1Cc1ccc(C(F)(F)F)cc1 (racemic)
168	CC(=O)NC(=O)c1cc([N+](=O)[O-])cnc1C(Br)Br
186	CN(C)c1ccc(CN=C(Cc2ccccc2)N2CC3C(=O)CCC(c4ccccc4)(c4ccccc4)C3C2)cc1 (stereo not given)
117 to 121	Nc1cccc(-c2cccc(-c3ccnc4c(C(=O)c5cccs5)cnn34)c2)c1
190 to 192	CCCCN(CCCC)c1ccc(C=CC=CC2=C(C#N)C(=C(C#N)C#N)OC2(c2ccccc2)C(F)(F)F)c(OC)c1 (stereo not given)
185 to 187	Cc1nc(N2CCN(CC(C)C)C2=O)sc1C(=O)NCc1ccncc1
129	Cc1cc2c(cc1Br)OCC(C)(C)CC2(O)c1ccccn1 (stereo not given)
158 to 159	CC(C)c1nc(C(C)C)c(CCc2ccccc2)c(-c2ccc(F)cc2)c1CO
197 to 199	O=C1Nc2cccc(-c3cccc([N+](=O)[O-])c3)c2/C1=C/c1ccc[nH]1
68 to 70	COc1ccc(COc2ccccc2-c2cccc(N)c2)cc1
155 to 156	CN(NC(=O)c1ccccc1C(=O)O)C(=S)Nc1ccccc1
158 to 159	CN1CCC2(CC1=O)c1ccccc1Oc1ccccc12
81.5 to 83	CCCC/C(=C\C=C\C(=O)Oc1ccc([N+](=O)[O-])cc1)c1cccc(OC)c1
191 to 193	Cc1cc(OCCCNCCC(N)=O)ccc1Cc1c(OC2OC(CO)C(O)C(O)C2O)n[nH]c1C(C)C (stereo not given)
141 to 142	COc1ccc(S(=O)(=O)Nc2ccccc2N)cc1
262 to 265	Cc1ccc(N2C(=O)C(O)=C(C(=O)c3ccc(C(C)(C)C)cc3)C2c2ccc(OC(F)(F)F)cc2)nn1 (stereo not given)
210 to 211	COc1ccc(OC)c(Cc2ccc3[nH]c(=S)[nH]c3c2)c1
143 to 144	O=C(N[C@@H]1CC(=O)N(Cc2ccccc2)C1=O)OCc1ccccc1
121 to 122	CNC(=NCCSCc1cc(OC)ccn1)NC#N
142 to 143	CCCc1nc(S)nn1-c1ccccc1
178 to 180	Cn1c(=O)c(C(=O)O)c(-c2ccccc2Cl)c2cccnc21
136	C#CCOc1cc(Oc2cc(Cl)cc(Cl)c2)ncn1
